Assay results: patent US20250360171A1, “CHEMOGENETICALLY GATED ION CHANNELS AND USE THEREOF” (TECHNION RESEARCH & DEVELOPMENT FOUNDATION LIMITED, priority 2023, published 2025)

What was measured:
PSAM4-5HT3-HC channel = biological target: T1, PSAM4-5HT3-HC channel (Homo sapiens, UniProt P36544, L131G/M226I/Q139L/T225I/Y217F); test: Voltage-clamp / membrane potential recordings of PSAM4-5HT3-HC-expressing hiPSC-CMs; format: cell-based; settings: for effect on Varenicline-induced depolarizing current: picrotoxin 100 uM, partial antagonist of 5HT3-IPD
T1 construct: expressed in transfected cells
Excerpt: The synthetic chemogenetic channel PSAM4-5HT3-HC was created by fusing a mutated α7-nicotinic acetylcholine receptor (PSAM4, engineered to bind the anti-smoking drug Varenicline at sub-therapeutic concentrations) with the ion pore-domain (IPD) of the serotonin receptor 3A (5HT3) with additional mutations made for high conductance (HC) (SEQ ID NO: 12). This molecule was disclosed in Magnus, et al., “Ultrapotent chemogenetics for research and potential clinical applications”, Science, 2019 April 12;364 (6436), hercin incorporated by reference in its entirety. This molecule has only ever been used in neurons; however, it was hypothesized that it could also be employed in other electrically active cells. Specifically, it was hypothesized that expressing this chemogenetic channel in cardiomyocytes would permit dose-dependent modulation of their excitable properties; with weak depolarizing currents leading to increased automaticity, and larger currents causing depolarization-induced electrical silencing.
To test these hypotheses, healthy-donor human induced pluripotent stem cells (hiPSCs) were transfected with a non-viral, randomly integrating, transposon to create a stably engineered line constitutively expressing the PSAM4-5HT3-HC channel together with cGFP (FIG. 1).

[1] = test system: rat hearts transplanted with chemogenetic hiPSC-CMs; test: Optical mapping of Langendorff-perfused rat hearts engrafted with chemogenetic hiPSC-CMs; format: in vivo; settings: 30 nM, adenosine-induced bradycardia, 7-10 days after transplantation, ex-vivo perfusion
Excerpt: (§1) Finally, chemogenetic hiPSC-CMs were transplanted into rat hearts. After 7-10 days, hearts were harvested, perfused ex-vivo using a custom-made Langendorff apparatus and optically mapped. Bradycardia was induced using adenosine.

[2] = test system: PSAM4-5HT3-hiPSC-CMs / control hiPSC-CMs co-culture; test: Co-culture of PSAM4-5HT3-cGFP-hiPSC-CMs beside control hiPSC-CMs, optical mapping; format: cell-based, human
Method: We next created a co-culture model where the PSAM4-5HT3-cGFP-hiPSC-CMs were seeded beside control hiPSC-CMs (FIG. 4A).
Next, it was tested whether this chemogenetic approach could suppress tissue automaticity and excitability when using higher concentrations of Varenicline (100 nM), as it did in single cells, albeit at lower concentration. This dosing discrepancy probably stems from the more limited drug diffusion and the presence of stronger electrotonic coupling (attenuating Varenicline-induced depolarization) at the tissue level.

PSAM4-5HT3-hiPSC-CCS = test: Optical mapping of PSAM4-5HT3-hiPSC-CCS tissue model; format: cell-based, human; settings: 5-30 nM
Excerpt: To assess the translational potential of these findings, a hiPSC-derived cardiac cell-sheet (hiPSC-CCS) tissue model generated from PSAM4-5HT3-hiPSC-CMs was utilized (FIG. 3A). […] This augmented automaticity was the result of Varenicline-induced depolarizing currents in pacemaker cells driving activity of the cultures.

[3] = test system: control, non-transfected, hiPSC-CCSs; test: Optical mapping of control, non-transfected hiPSC-CCSs; format: cell-based, human; settings: any dose
[4] = test system: control unmodified hiPSC-CMs; test: Patch-clamp of control unmodified hiPSC-CMs; format: cell-based, human
Method: At higher doses (10 nM), spontaneous generation of action potentials (Aps) ceased (FIG. 2B). This suppression of excitability likely results from the significant membrane diastolic depolarization (−64±7 mV to −10±4 mV; p<0.0001; FIG. 2C) due to the large Varenicline-induced inward current (−6.8±3.2 pA/pF; p<0.01; FIG. 2C).

[5] = test system: control (non-transplanted) rat hearts; test: Optical mapping of Langendorff-perfused control (non-transplanted) rat hearts; format: in vivo; settings: four control hearts, 30 nM with adenosine
Excerpt: as §1

[6] = test system: CMs engineered to express the compound channel; test: Coculture model: engineered CCS between two wild-type CCSs, reentrant arrhythmia; format: cell-based, human; settings: 5 nM
Excerpt: (§2) To further illustrate the potential of this technology a coculture model of wild type CMs and CMs engineered to express the compound channel was generated (FIG. 8). In this model, only the CMs in the CCS between the two wild-type CCSs express the compound channel that is responsive to CNO. Reentrant arrhythmias were induced that spanned the whole model. […] As such, the arrhythmia became relegated to a single side of the model. That is an arrhythmia with a core in one CCS (for example the right one) become relegate to just that CCS upon application of CNO, while the other (left) CCS remained unaffected. It was further shown that the left CCS could be electrically paced, and conduction was successful until the wave front reaches the unexcitable engineered CMs. […] Thus, it is clear that native CMs are unaffected by CNO, but the genetically engineered CMs can be robustly ‘silenced’ by the application of CNO at very low concentrations (2-5 nM). Further, arrhythmias are succinctly terminated as a result of this silencing. Upon washout normal electrical activity resumed in the engineered CMs.

[7] = test system: cardiac cell sheets expressing SthK and Rm3D; test: Reentrant arrhythmia in cardiac cell sheets expressing SthK and Rm3D, optical mapping; format: cell-based, human
Excerpt: In order to express both the DREADD and the channel in the membrane of cardiomyocytes a vector encoding a single transcript was generated. The open reading frame for SthK was cloned downstream of the chicken B-actin promoter. Instead of a stop codon, at the end of SthK a P2A cleavable peptide was encoded followed by the Rm3D receptor in frame. The result is a reading frame (SEQ ID NO: 4) encoding an 874 amino acid construct (SEQ ID NO: 8) that is co-translationally cleaved near the end of the P2A peptide to produce separate SthK and Rm3D proteins from a single transcript.
Cardiac cell sheets (CCSs) were generated as a 2D tissue model from the transfected iPSC-CMs and the CCSs were loaded with an optical voltage-dependent dye and mapped using a high-speed EMCCD camera. […] Reentrant arrhythmias were induced by transient tachypacing, and the resultant arrhythmias were stable within the tissue (FIG. 7A). […] This was seen as an inability to excite the cells even with significant electrical stimulation. […] Furthermore, it was shown that a single washout of the drug led to rapid recovery of electrical excitability by electrical pacing (within 30-90 seconds of washout) and the spontaneous resumption of a normal rhythm (sinus) within 2-5 minutes, as would be expected after defibrillation/cardioversion (FIG. 7C). Thus, the arrythmias were successfully terminated upon application of CNO, and normal electrical activity returned almost immediately after washout.

native CMs = test: Coculture model: native (wild type) CMs; format: cell-based, human; settings: 2-5 nM
Excerpt: as §2

T1 sequence (P36544 with tags, fused parts or gaps L131G/Q139L/Y217F/T225I/M226I): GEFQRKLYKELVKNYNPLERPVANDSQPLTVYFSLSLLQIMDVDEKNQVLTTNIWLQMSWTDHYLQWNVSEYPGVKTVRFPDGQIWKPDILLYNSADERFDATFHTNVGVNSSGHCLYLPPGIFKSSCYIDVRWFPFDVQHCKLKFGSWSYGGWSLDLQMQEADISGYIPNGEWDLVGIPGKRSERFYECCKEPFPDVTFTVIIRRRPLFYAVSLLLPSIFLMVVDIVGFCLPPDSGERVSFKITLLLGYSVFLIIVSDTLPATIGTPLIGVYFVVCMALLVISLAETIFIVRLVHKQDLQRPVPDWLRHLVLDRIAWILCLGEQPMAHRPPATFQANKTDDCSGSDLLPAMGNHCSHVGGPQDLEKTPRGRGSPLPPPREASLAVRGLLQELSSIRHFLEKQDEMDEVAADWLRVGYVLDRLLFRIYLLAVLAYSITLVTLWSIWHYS

picrotoxin
effect on Varenicline-induced depolarizing current (PSAM4-5HT3-HC channel): suppressing the depolarizing current | effect on Varenicline-induced depolarizing current (PSAM4-5HT3-HC channel; listed as Picrotoxin): partially reversed

c1cnc2cc3c(cc2n1)[C@@H]1CNC[C@H]3C1 [Varenicline]
hearts developing ectopic ventricular activity from area of cell transplantation [1]: four out of five | spontaneous generation of action potentials (PSAM4-5HT3-HC channel; 10 nM): ceased | membrane diastolic potential after Varenicline (PSAM4-5HT3-HC channel; depolarization from −64±7 mV, p<0.0001, 10 nM (FIG. 2)): −10±4 mV | Varenicline-induced inward current (PSAM4-5HT3-HC channel; p<0.01, FIG. 2C): −6.8±3.2 pA/pF | Varenicline-induced depolarizing currents (PSAM4-5HT3-HC channel; voltage-clamp, even at low concentrations (1 nM)): robust Varenicline-induced depolarizing currents | excitability of the region containing non-transfected cells ([2]; 100 nM): retained its excitable properties | spontaneous activity of the co-cultures ([2]; 100 nM): significantly slowed | electrical activity in the PSAM4-5HT3-hiPSC-CMs area ([2]; 100 nM, in some specimens): complete silencing of electrical activity | origin of spontaneous activity (pacemaker area) ([2]; baseline origin in control tissue): shifted the pacemaker area to the PSAM4-5HT3-HC tissue | automaticity of co-culture ([2]; escalating doses): augmented automaticity in a dose-dependent manner | increase of spontaneous rhythm over baseline ([2]; rhythm arising from the PSAM4-5HT3-hiPSC-CMs): > 6 fold | cultures' activation frequency (PSAM4-5HT3-hiPSC-CCS): dose-dependent increase | chronotropic effects [3]: no chronotropic effects | response to Varenicline [4]: No response | shift in the activation pattern [5]: did not occur

C[N+]1([O-])CCN(C2=Nc3cc(Cl)ccc3Nc3ccccc32)CC1 [CNO, clozapine-N-oxide]
conduction of arrhythmia across engineered cells [6]: could no longer cross the engineered cells | electrical activity of the CCS ([7]; 2-5 nM): rapid inactivation (silencing) | termination of existing reentrant arrhythmias ([7]; 2-5 nM): sufficient to completely terminate existing arrhythmias | time to recovery of electrical excitability by electrical pacing after washout ([7]; single washout): 30 to 90 s | time to spontaneous resumption of a normal rhythm (sinus) after washout ([7]; single washout): 2 to 5 min | effect on native CMs (native CMs): unaffected
